Measured values taken from patent US20240158446A1, “CYCLIC COMPOUND HAVING SELECTIVE INHIBITORY ACTION ON KRAS OVER HRAS AND NRAS” (CHUGAI SEIYAKU KABUSHIKI KAISHA, priority 2021, published 2024).
Like-named read-outs stand apart in the source and are kept apart here. Where a SMILES comes first, the peptide text is derived from it. Bridges are numbered along the chain shown (N, C = ends). [ ]: non-standard residue; d: D form. hPhe(3,5-F2-4-CF3) = N[C@@H](CCc1cc(F)c(C(F)(F)F)c(F)c1)C(=O)O; hPhe(3-Cl-4-CF3) = N[C@@H](CCc1ccc(C(F)(F)F)c(Cl)c1)C(=O)O; NPrPhe(4-CF3) = CCCN[C@@H](Cc1ccc(C(F)(F)F)cc1)C(=O)O; NMeGly(cPent) = CN[C@H](C(=O)O)C1CCCC1; Pro(4,4-F2) = O=C(O)[C@@H]1CC(F)(F)CN1; αMeCha = C[C@](N)(CC1CCCCC1)C(=O)O; NMeD = CN[C@@H](CC(=O)O)C(=O)O; NMeL = CN[C@@H](CC(C)C)C(=O)O; Ac5c = NC1(C(=O)O)CCCC1; NEtG = CCNCC(=O)O; Sar = CNCC(=O)O

Experiments:
[1] = molecular target: GDP-bound NRAS wild-type protein (Homo sapiens, UniProt P01111); assay: Binding to NRAS by surface plasmon resonance (SPR), Single Cycle Kinetics; details: for NRAS/KRAS (ratio of KD value for NRAS to KD value for KRAS) / NRAS/KRAS (ratio of KD value with respect to NRAS to KD value with respect to KRAS): SPR, GDP-bound NRAS wild-type protein vs GDP-bound KRAS wild-type protein
Sequence of GDP-bound NRAS wild-type protein (P01111 whole entry): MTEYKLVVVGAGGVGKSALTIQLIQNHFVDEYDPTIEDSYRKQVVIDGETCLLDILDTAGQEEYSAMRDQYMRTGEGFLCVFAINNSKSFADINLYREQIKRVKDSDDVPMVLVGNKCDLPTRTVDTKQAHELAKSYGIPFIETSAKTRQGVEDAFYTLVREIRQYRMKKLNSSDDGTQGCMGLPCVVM

[2] = molecular target: GDP-bound HRAS wild-type protein (Homo sapiens, UniProt P01112); assay: Binding to HRAS by surface plasmon resonance (SPR), Single Cycle Kinetics; details: for HRAS/KRAS (ratio of KD value for HRAS to KD value for KRAS) / HRAS/KRAS (ratio of KD value with respect to HRAS to KD value with respect to KRAS): SPR, GDP-bound HRAS wild-type protein vs GDP-bound KRAS wild-type protein
Sequence of GDP-bound HRAS wild-type protein (P01112 whole entry): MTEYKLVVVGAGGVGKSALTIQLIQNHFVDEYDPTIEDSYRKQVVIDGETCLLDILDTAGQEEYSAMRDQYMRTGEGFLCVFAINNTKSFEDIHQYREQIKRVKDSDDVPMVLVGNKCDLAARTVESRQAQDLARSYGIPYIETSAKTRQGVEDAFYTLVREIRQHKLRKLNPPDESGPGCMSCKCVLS

[3] = molecular target: GDP-bound KRAS wild-type protein (Homo sapiens, UniProt P01116); assay: Binding to KRAS by surface plasmon resonance (SPR), Single Cycle Kinetics; details: GDP-bound KRAS wild-type protein, read-out: KRAS KD
Sequence of GDP-bound KRAS wild-type protein (P01116 whole entry): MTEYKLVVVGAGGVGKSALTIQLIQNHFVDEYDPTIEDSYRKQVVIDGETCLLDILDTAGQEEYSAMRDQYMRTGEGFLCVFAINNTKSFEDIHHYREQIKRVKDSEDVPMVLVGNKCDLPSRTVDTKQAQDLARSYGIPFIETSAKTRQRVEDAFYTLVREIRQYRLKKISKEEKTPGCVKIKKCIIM

[4] = SPR Single Cycle Kinetics, 1:1 binding model

SMILES	Kd [3, 4]	Kd ([3]; SPR, Single Cycle Kinetics)	NRAS/KRAS (ratio of KD value with respect to GDP-bound NRAS wild-type protein to KD value with respect to KRAS) ([1]; SPR KD ratio NRAS/KRAS, class symbols)	HRAS/KRAS (ratio of KD value with respect to GDP-bound HRAS wild-type protein to KD value with respect to KRAS) ([2]; SPR KD ratio HRAS/KRAS, class symbols)	NRAS/KRAS (ratio of KD value for NRAS to KD value for KRAS) [1]	HRAS/KRAS (ratio of KD value for HRAS to KD value for KRAS) [2]	NRAS/KRAS (ratio of KD value with respect to NRAS to KD value with respect to KRAS) [1]	HRAS/KRAS (ratio of KD value with respect to HRAS to KD value with respect to KRAS) [2]
CC[C@H](C)[C@@H]1NC(=O)[C@H](CC(C)C)N(C)C(=O)C[C@@H](C(=O)N2CCOCC2)N(C)C(=O)[C@H](C2CCCC2)N(C)C(=O)C2(CCC2)NC(=O)[C@@H]2[C@@H](OC)CCN2C(=O)[C@H](CCc2cc(F)c(C(F)(F)F)c(F)c2)NC(=O)CN(C)C(=O)[C@H](Cc2ccc(C(F)(F)F)cc2)N2CCCCC[C@@H](C2=O)N(C)C(=O)CN(C)C1=O [PP1067]	–	2.9 nM	–	–	B (a compound having 3 or more and less than 10 is denoted as B)	B (a compound having 3 or more and less than 10 is denoted as B)	–	–
CCCN1C(=O)CN(C)C(=O)CN(CC)C(=O)[C@H]([C@@H](C)CC)NC(=O)[C@H](CC(C)C)N(C)C(=O)C[C@@H](C(=O)N(C)C)N(C)C(=O)[C@H](C2CCCC2)N(C)C(=O)C2(CCCC2)NC(=O)[C@@H]2CC(F)(F)CN2C(=O)[C@H](CCc2ccc(C(F)(F)F)c(Cl)c2)NC(=O)CN(C)C(=O)[C@@H]1Cc1ccc(C(F)(F)F)cc1 [PP0425] ([NMeL]I[NEtG][Sar][NPrPhe(4-CF3)][Sar][hPhe(3-Cl-4-CF3)][Pro(4,4-F2)][Ac5c][NMeGly(cPent)][NMeD]-NMe2; lactam N-11)	0.099 nM	–	–	–	–	–	B (a compound having 3 or more and less than 10 is denoted as B)	C (A compound having a KD ratio of 0.1 or more and less than 3 is denoted as C)
CC[C@H](C)[C@@H]1NC(=O)[C@H](COC)N(C)C(=O)C[C@@H](C(=O)N2CCOCC2)N(C)C(=O)[C@H](C2CCCC2)N(C)C(=O)C2(CCC2)NC(=O)[C@@H]2C[C@@H](OC)CN2C(=O)[C@H](CCc2cc(F)c(C(F)(F)F)c(F)c2)NC(=O)CN(C)C(=O)[C@H](Cc2ccc(C(F)(F)F)cc2)N2CCCCC[C@@H](C2=O)N(C)C(=O)CN(C)C1=O [PP0837]	–	0.19 nM	–	–	B (a compound having 3 or more and less than 10 is denoted as B)	B (a compound having 3 or more and less than 10 is denoted as B)	–	–
CCCN1C(=O)CN(C)C(=O)CN(C)C(=O)[C@H]([C@@H](C)CC)NC(=O)[C@H](CC(C)C)N(C)C(=O)C[C@@H](C(=O)N(C)C)N(C)C(=O)[C@H](C2CCCC2)N(C)C(=O)[C@](C)(CC2CCCCC2)NC(=O)[C@@H]2CCCN2C(=O)[C@H](CCc2cc(F)c(C(F)(F)F)c(F)c2)NC(=O)CN(C)C(=O)[C@@H]1Cc1ccc(C(F)(F)F)cc1 [PP0739] ([NMeL]I[Sar][Sar][NPrPhe(4-CF3)][Sar][hPhe(3,5-F2-4-CF3)]P[αMeCha][NMeGly(cPent)][NMeD]-NMe2; lactam N-11)	3.7 nM	–	–	–	–	–	B (a compound having 3 or more and less than 10 is denoted as B)	C (A compound having a KD ratio of 0.1 or more and less than 3 is denoted as C)

Continued, in another order:

Kd [3, 4]	Kd ([3]; SPR, Single Cycle Kinetics)	SMILES	NRAS/KRAS (ratio of KD value with respect to GDP-bound NRAS wild-type protein to KD value with respect to KRAS) ([1]; SPR KD ratio NRAS/KRAS, class symbols)	HRAS/KRAS (ratio of KD value with respect to GDP-bound HRAS wild-type protein to KD value with respect to KRAS) ([2]; SPR KD ratio HRAS/KRAS, class symbols)	NRAS/KRAS (ratio of KD value for NRAS to KD value for KRAS) [1]	HRAS/KRAS (ratio of KD value for HRAS to KD value for KRAS) [2]	NRAS/KRAS (ratio of KD value with respect to NRAS to KD value with respect to KRAS) [1]	HRAS/KRAS (ratio of KD value with respect to HRAS to KD value with respect to KRAS) [2]
0.34 nM	–	CCC[C@H]1C(=O)N[C@@H]([C@@H](C)CC)C(=O)N(C)CC(=O)N(C)[C@H]2C/C=C\CCN(C2=O)[C@@H](Cc2ccc(C(F)(F)F)cc2)C(=O)N(C)CC(=O)N[C@@H](CCc2cc(F)c(C(F)(F)F)c(F)c2)C(=O)N2C[C@H](OCC)C[C@H]2C(=O)NC2(CC(C)(C)C2)C(=O)N(C)[C@@H](CC2CC2)C(=O)N(C)[C@H](C(=O)N(C)C)CC(=O)N1C [PP2807]	AA (a compound having 20 or more is denoted as AA)	A (a compound having 10 or more and less than 20 is denoted as A)	–	–	–	–
–	0.031 nM	CCO[C@@H]1C[C@H]2C(=O)NC3(CCC3)C(=O)N(C)[C@@H](C3CCCC3)C(=O)N(C)[C@H](C(=O)N(C)C)CC(=O)N(C)[C@@H](COC)C(=O)N[C@@H]([C@@H](C)CC)C(=O)N(C)CC(=O)N(C)[C@H]3C/C=C\CCN(C3=O)[C@@H](Cc3ccc(C(F)(F)F)cc3)C(=O)N(C)CC(=O)N[C@@H](CCc3cc(F)c(C(F)(F)F)c(F)c3)C(=O)N2C1 [PP1113, (2S,8S,12R,14S,20S,23S,27S,30S,36S,38Z)-20-cyclopentyl-8-[2-[3,5-difluoro-4-(trifluoromethyl)phenyl]ethyl]-12-ethoxy-27-(methoxymethyl)-N,N,4,19,22,26,32,35-octamethyl-30-[(1S)-1-methylpropyl]-3,6,9,15,18,21,25,28,31,34,42-undecaoxo-2-[[4-(trifluoromethyl)phenyl]methyl]spiro[1,4,7,10,16,19,22,26,29,32,35-undecazatricyclo[34.5.1.0^10,14]dotetracont-38-ene-17,1′-cyclobutane]-23-carboxamide]	–	–	A (a compound having 10 or more and less than 20 is denoted as A)	A (a compound having 10 or more and less than 20 is denoted as A)	–	–
–	0.6 nM	CCCO[C@@H]1C[C@H]2C(=O)NC3(CCC3)C(=O)N(C)[C@@H](C3CCCC3)C(=O)N(C)[C@H](C(=O)N3CCOCC3)CC(=O)N(C)[C@@H](CC(C)C)C(=O)N[C@@H]([C@@H](C)CC)C(=O)N(C)CC(=O)N(C)[C@H]3CCCCCN(C3=O)[C@@H](Cc3ccc(C(F)(F)F)cc3)C(=O)N(C)CC(=O)N[C@@H](CCc3cc(F)c(C(F)(F)F)c(F)c3)C(=O)N2C1 [PP1161]	–	–	B (a compound having 3 or more and less than 10 is denoted as B)	B (a compound having 3 or more and less than 10 is denoted as B)	–	–
